Our source for the Ki values is ChEMBL document CHEMBL1146926, “Fluorescent non-imidazole histamine H3 receptor ligands with nanomolar affinities” (Bioorg Med Chem Lett, 2006).

The experiment deals with Histamine H3 receptor (Homo sapiens, UniProt Q9Y5N1). Kind of experiment: Displacement of [125I]iodoproxyfan from human histamine H3 receptor expressed in CHOK1 cells. The class given is cell-based, CHO-K1.
Sequence of Histamine H3 receptor (Q9Y5N1 whole entry): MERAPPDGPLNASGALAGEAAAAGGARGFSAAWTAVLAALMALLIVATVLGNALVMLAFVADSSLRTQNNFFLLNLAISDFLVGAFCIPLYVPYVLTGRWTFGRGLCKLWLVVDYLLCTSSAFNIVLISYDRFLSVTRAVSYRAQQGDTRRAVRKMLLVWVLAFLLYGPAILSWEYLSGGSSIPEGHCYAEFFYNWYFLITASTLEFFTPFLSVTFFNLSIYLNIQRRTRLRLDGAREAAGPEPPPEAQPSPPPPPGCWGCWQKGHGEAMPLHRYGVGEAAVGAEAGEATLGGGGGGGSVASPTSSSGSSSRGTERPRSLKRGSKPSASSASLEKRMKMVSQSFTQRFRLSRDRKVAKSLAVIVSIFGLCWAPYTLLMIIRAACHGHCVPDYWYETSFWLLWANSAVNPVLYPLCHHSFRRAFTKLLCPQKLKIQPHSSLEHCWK

Turning to `N#Cc1c2ccccc2cn1CCCCCN1CCCCC1`, the inhibition constant Ki is 0.031 µM.

`N#Cc1c2ccccc2cn1CCCCN1CCCCC1` yielded an inhibition constant (Ki) of 0.178 µM.

`N#Cc1c2ccccc2cn1CCCCCCN1CCCCC1` came in with a Ki of 0.031 µM.

Compound `O=[N+]([O-])c1ccc(NCCCCN2CCCCC2)c2nonc12` gave a Ki of 0.17 µM.

In the case of `O=[N+]([O-])c1ccc(NCCCCCN2CCCCC2)c2nonc12`, the inhibition constant (Ki) came out at 0.011 µM.

As for `N#Cc1c2ccccc2cn1CCCN1CCCCC1`, the Ki turned out to be 0.351 µM. This Ki is about 32-fold higher than that of the compound before.

In general, Ki refers to the equilibrium dissociation constant of an inhibitor or competing ligand from its target. Higher therefore signals a looser hold on the target.
